The supplement of paper PMC11451515

Columns and labels:
Settings in all cases: 48 h
NOMO1 [1] = assay: cell viability relative to DMSO control; higher = less cytotoxic
Summary of the method: (§1)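 Viability, reported as a per-plate percentage of DMSO wells with cell-free wells as background, came from CellTiter-Glo One luminescence. Reading took place after 48 h at 37°C. Before that, NOMO1 or SEM (500 cells/well) or P12-Ichikawa (1000 cells/well) leukemia cells, adapted for at least four passages in each medium, were seeded in 1536-well plates (5 μl) and pin-dosed with library compounds in DMSO, 47 μM to 0.79 nM over 11 threefold points.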

SEM cells [2] = assay: as above
Summary of the method: as §1

P12-Ichikawa [3] = assay: as above
Summary of the method: as §1

NOMO1 [4] = assay: AUC of viability dose-response curve (% viability x log10 dose units); higher = less sensitive
Summary of the method: (§2)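 Seeding of medium-adapted leukemia cells was at 500 or 1000 cells/well in 1536-well plates, followed by 48 h at 37°C with library compounds in DMSO at 11 threefold doses from 47 μM to 0.79 nM. CellTiter-Glo One luminescence was normalised per plate to DMSO and cell-free wells and fitted as a four-parameter log-logistic function of log10 dose. Area under the curve was integrated by trapezoidal rule, with curves exceeding full viability scaled and curves failing quality control removed.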

SEM cells [5] = assay: as above
Summary of the method: as §2

P12-Ichikawa [6] = assay: as above
Summary of the method: as §2

[7] = HPLM + 10% dialyzed FBS, 0.000781 µM
[8] = HPLM + 10% dialyzed FBS, 0.00234 µM
[9] = HPLM + 10% dialyzed FBS, 0.00702 µM
[10] = HPLM + 10% dialyzed FBS, 0.0211 µM
[11] = HPLM + 10% dialyzed FBS, 0.0632 µM
[12] = HPLM + 10% dialyzed FBS, 0.19 µM
[13] = HPLM + 10% dialyzed FBS, 0.569 µM
[14] = HPLM + 10% dialyzed FBS, 1.71 µM
[15] = HPLM + 10% dialyzed FBS, 5.12 µM
[16] = HPLM + 10% dialyzed FBS, 15.4 µM
[17] = HPLM + 10% dialyzed FBS, 46.1 µM
[18] = RPMI 5 mM glucose + 10% FBS, 0.000781 µM
[19] = RPMI 5 mM glucose + 10% FBS, 0.00234 µM
[20] = RPMI 5 mM glucose + 10% FBS, 0.00702 µM
[21] = RPMI 5 mM glucose + 10% FBS, 0.0211 µM
[22] = RPMI 5 mM glucose + 10% FBS, 0.0632 µM
[23] = RPMI 5 mM glucose + 10% FBS, 0.19 µM
[24] = RPMI 5 mM glucose + 10% FBS, 0.569 µM
[25] = RPMI 5 mM glucose + 10% FBS, 1.71 µM
[26] = RPMI 5 mM glucose + 10% FBS, 5.12 µM
[27] = RPMI 5 mM glucose + 10% FBS, 15.4 µM
[28] = RPMI 5 mM glucose + 10% FBS, 46.1 µM
[29] = RPMI 5 mM glucose + 10% dialyzed FBS, 0.000781 µM
[30] = RPMI 5 mM glucose + 10% dialyzed FBS, 0.00234 µM
[31] = RPMI 5 mM glucose + 10% dialyzed FBS, 0.00702 µM
[32] = RPMI 5 mM glucose + 10% dialyzed FBS, 0.0211 µM
[33] = RPMI 5 mM glucose + 10% dialyzed FBS, 0.0632 µM
[34] = RPMI 5 mM glucose + 10% dialyzed FBS, 0.19 µM
[35] = RPMI 5 mM glucose + 10% dialyzed FBS, 0.569 µM
[36] = RPMI 5 mM glucose + 10% dialyzed FBS, 1.71 µM
[37] = RPMI 5 mM glucose + 10% dialyzed FBS, 5.12 µM
[38] = RPMI 5 mM glucose + 10% dialyzed FBS, 15.4 µM
[39] = RPMI 5 mM glucose + 10% dialyzed FBS, 46.1 µM
[40] = RPMI 5 mM glucose + 10% dialyzed FBS

## CO[C@@H]1[C@@H](O)[C@H](O)[C@@H](n2c3c(Cl)cccc3c3c4c(c5c6cccc(Cl)c6[nH]c5c32)C(=O)NC4=O)O[C@H]1CO
NOMO1 [1]; [7]
  cell viability: 103%
NOMO1 [1]; [8]
  cell viability: 116%
NOMO1 [1]; [9]
  cell viability: 106%
NOMO1 [1]; [10]
  cell viability: 103%
NOMO1 [1]; [11]
  cell viability: 105%
NOMO1 [1]; [12]
  cell viability: 107%
NOMO1 [1]; [13]
  cell viability: 89.6%
NOMO1 [1]; [14]
  cell viability: 21.6%
NOMO1 [1]; [15]
  cell viability: 30.5%
NOMO1 [1]; [16]
  cell viability: 25.7%
NOMO1 [1]; [17]
  cell viability: 18.3%
NOMO1 [1]; [18]
  cell viability: 93.3%
NOMO1 [1]; [19]
  cell viability: 91.3%
NOMO1 [1]; [20]
  cell viability: 106%
NOMO1 [1]; [21]
  cell viability: 105%
NOMO1 [1]; [22]
  cell viability: 86.7%
NOMO1 [1]; [23]
  cell viability: 86.4%
NOMO1 [1]; [24]
  cell viability: 91.7%
NOMO1 [1]; [25]
  cell viability: 16.7%
NOMO1 [1]; [26]
  cell viability: 20.3%
NOMO1 [1]; [27]
  cell viability: 19.3%
NOMO1 [1]; [28]
  cell viability: 16.4%
NOMO1 [1]; [29]
  cell viability: 84.7%
NOMO1 [1]; [30]
  cell viability: 103%
NOMO1 [1]; [31]
  cell viability: 89.9%
NOMO1 [1]; [32]
  cell viability: 98.5%
NOMO1 [1]; [33]
  cell viability: 90.8%
NOMO1 [1]; [34]
  cell viability: 99.9%
NOMO1 [1]; [35]
  cell viability: 87.2%
NOMO1 [1]; [36]
  cell viability: 20.7%
NOMO1 [1]; [37]
  cell viability: 21.3%
NOMO1 [1]; [38]
  cell viability: 22.6%
NOMO1 [1]; [39]
  cell viability: 19.7%
SEM cells [2]; [7]
  cell viability: 99.7%
SEM cells [2]; [8]
  cell viability: 90.8%
SEM cells [2]; [9]
  cell viability: 105%
SEM cells [2]; [10]
  cell viability: 112%
SEM cells [2]; [11]
  cell viability: 96.9%
SEM cells [2]; [12]
  cell viability: 81.2%
SEM cells [2]; [13]
  cell viability: 54.5%
SEM cells [2]; [14]
  cell viability: 13.8%
SEM cells [2]; [15]
  cell viability: 9.51%
SEM cells [2]; [16]
  cell viability: 5.16%
SEM cells [2]; [17]
  cell viability: 5.04%
SEM cells [2]; [18]
  cell viability: 137%
SEM cells [2]; [19]
  cell viability: 118%
SEM cells [2]; [20]
  cell viability: 113%
SEM cells [2]; [21]
  cell viability: 112%
SEM cells [2]; [22]
  cell viability: 108%
SEM cells [2]; [23]
  cell viability: 70.1%
SEM cells [2]; [24]
  cell viability: 28.1%
SEM cells [2]; [25]
  cell viability: 11.5%
SEM cells [2]; [26]
  cell viability: 6.56%
SEM cells [2]; [27]
  cell viability: 4.38%
SEM cells [2]; [28]
  cell viability: 4.8%
SEM cells [2]; [29]
  cell viability: 99.2%
SEM cells [2]; [30]
  cell viability: 113%
SEM cells [2]; [31]
  cell viability: 95.1%
SEM cells [2]; [32]
  cell viability: 100%
SEM cells [2]; [33]
  cell viability: 92.4%
SEM cells [2]; [34]
  cell viability: 82.9%
SEM cells [2]; [35]
  cell viability: 43.1%
SEM cells [2]; [36]
  cell viability: 11%
SEM cells [2]; [37]
  cell viability: 7.94%
SEM cells [2]; [38]
  cell viability: 4.29%
SEM cells [2]; [39]
  cell viability: 3.62%
P12-Ichikawa [3]; [7]
  cell viability: 109%
P12-Ichikawa [3]; [8]
  cell viability: 100%
P12-Ichikawa [3]; [9]
  cell viability: 108%
P12-Ichikawa [3]; [10]
  cell viability: 106%
P12-Ichikawa [3]; [11]
  cell viability: 100%
P12-Ichikawa [3]; [12]
  cell viability: 81.9%
P12-Ichikawa [3]; [13]
  cell viability: 14.3%
P12-Ichikawa [3]; [14]
  cell viability: 5.78%
P12-Ichikawa [3]; [15]
  cell viability: 7.57%
P12-Ichikawa [3]; [16]
  cell viability: 4.61%
P12-Ichikawa [3]; [17]
  cell viability: 3.32%
P12-Ichikawa [3]; [18]
  cell viability: 101%
P12-Ichikawa [3]; [19]
  cell viability: 104%
P12-Ichikawa [3]; [20]
  cell viability: 103%
P12-Ichikawa [3]; [21]
  cell viability: 103%
P12-Ichikawa [3]; [22]
  cell viability: 94.9%
P12-Ichikawa [3]; [23]
  cell viability: 71%
P12-Ichikawa [3]; [24]
  cell viability: 8.36%
P12-Ichikawa [3]; [25]
  cell viability: 6.11%
P12-Ichikawa [3]; [26]
  cell viability: 4.86%
P12-Ichikawa [3]; [27]
  cell viability: 3.72%
P12-Ichikawa [3]; [28]
  cell viability: 3.9%
P12-Ichikawa [3]; [29]
  cell viability: 97.7%
P12-Ichikawa [3]; [30]
  cell viability: 91.4%
P12-Ichikawa [3]; [31]
  cell viability: 96.1%
P12-Ichikawa [3]; [32]
  cell viability: 94.7%
P12-Ichikawa [3]; [33]
  cell viability: 85.7%
P12-Ichikawa [3]; [34]
  cell viability: 68.4%
P12-Ichikawa [3]; [35]
  cell viability: 14%
P12-Ichikawa [3]; [36]
  cell viability: 7.72%
P12-Ichikawa [3]; [37]
  cell viability: 8.77%
P12-Ichikawa [3]; [38]
  cell viability: 6.63%
P12-Ichikawa [3]; [39]
  cell viability: 4.8%
NOMO1 [4]; HPLM + 10% dialyzed FBS
  AUC of viability dose-response curve: 340
NOMO1 [4]; RPMI 5 mM glucose + 10% FBS
  AUC of viability dose-response curve: 323
NOMO1 [4]; [40]
  AUC of viability dose-response curve: 325
SEM cells [5]; HPLM + 10% dialyzed FBS
  AUC of viability dose-response curve: 292
SEM cells [5]; RPMI 5 mM glucose + 10% FBS
  AUC of viability dose-response curve: 254
SEM cells [5]; [40]
  AUC of viability dose-response curve: 283
P12-Ichikawa [6]; HPLM + 10% dialyzed FBS
  AUC of viability dose-response curve: 266
P12-Ichikawa [6]; RPMI 5 mM glucose + 10% FBS
  AUC of viability dose-response curve: 259
P12-Ichikawa [6]; [40]
  AUC of viability dose-response curve: 251

## Cc1ncc(-c2ccnc(Nc3ccc([S+](C)(=O)[O-])cc3)n2)n1C(C)C
NOMO1 [4]; HPLM + 10% dialyzed FBS
  AUC of viability dose-response curve: 400
NOMO1 [4]; RPMI 5 mM glucose + 10% FBS
  AUC of viability dose-response curve: 396
NOMO1 [4]; [40]
  AUC of viability dose-response curve: 389
SEM cells [5]; HPLM + 10% dialyzed FBS
  AUC of viability dose-response curve: 367
SEM cells [5]; RPMI 5 mM glucose + 10% FBS
  AUC of viability dose-response curve: 357
SEM cells [5]; [40]
  AUC of viability dose-response curve: 380
P12-Ichikawa [6]; HPLM + 10% dialyzed FBS
  AUC of viability dose-response curve: 437
P12-Ichikawa [6]; RPMI 5 mM glucose + 10% FBS
  AUC of viability dose-response curve: 412
P12-Ichikawa [6]; [40]
  AUC of viability dose-response curve: 416
